{"source": "patent EP1022029A1", "about": "“NOOTROPIC AGENT” (priority 1997, dated 1999)", "key": {"[1]": {"target": "T1, nACh receptors (α, β, γ, δ) of Torpedo (Tetronarce californica, UniProt P02710+P02712+P02714+P02718)", "T1 construct": "expressed in transfected cells; host or cells: Xenopus oocytes", "T1 sequence (P02718 22-522)": "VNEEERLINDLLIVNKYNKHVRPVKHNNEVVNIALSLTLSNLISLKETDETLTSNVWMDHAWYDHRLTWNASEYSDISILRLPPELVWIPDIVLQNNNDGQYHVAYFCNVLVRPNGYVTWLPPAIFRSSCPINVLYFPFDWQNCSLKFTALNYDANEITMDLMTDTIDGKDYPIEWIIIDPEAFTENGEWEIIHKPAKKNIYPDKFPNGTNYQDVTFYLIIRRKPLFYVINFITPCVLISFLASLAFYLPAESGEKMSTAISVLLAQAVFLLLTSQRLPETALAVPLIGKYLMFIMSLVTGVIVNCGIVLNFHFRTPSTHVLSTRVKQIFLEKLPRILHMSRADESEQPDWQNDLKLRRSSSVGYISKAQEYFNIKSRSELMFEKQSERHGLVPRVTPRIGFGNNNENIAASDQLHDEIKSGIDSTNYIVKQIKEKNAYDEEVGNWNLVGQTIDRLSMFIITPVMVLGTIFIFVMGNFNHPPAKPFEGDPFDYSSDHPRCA", "T1 sequence (P02712 25-493)": "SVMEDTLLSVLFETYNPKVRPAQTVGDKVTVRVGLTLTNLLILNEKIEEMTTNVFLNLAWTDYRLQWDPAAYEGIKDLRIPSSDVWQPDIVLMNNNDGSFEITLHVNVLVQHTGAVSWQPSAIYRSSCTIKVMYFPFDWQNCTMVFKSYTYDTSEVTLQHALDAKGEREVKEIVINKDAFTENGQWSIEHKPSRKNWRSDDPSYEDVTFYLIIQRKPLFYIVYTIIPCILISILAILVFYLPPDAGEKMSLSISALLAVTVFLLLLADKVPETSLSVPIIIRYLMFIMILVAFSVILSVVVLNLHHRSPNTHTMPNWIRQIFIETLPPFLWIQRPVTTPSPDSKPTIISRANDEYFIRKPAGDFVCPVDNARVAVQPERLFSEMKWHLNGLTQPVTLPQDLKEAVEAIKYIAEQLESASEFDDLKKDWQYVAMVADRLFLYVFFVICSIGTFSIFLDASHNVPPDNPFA", "T1 sequence (P02710 25-461)": "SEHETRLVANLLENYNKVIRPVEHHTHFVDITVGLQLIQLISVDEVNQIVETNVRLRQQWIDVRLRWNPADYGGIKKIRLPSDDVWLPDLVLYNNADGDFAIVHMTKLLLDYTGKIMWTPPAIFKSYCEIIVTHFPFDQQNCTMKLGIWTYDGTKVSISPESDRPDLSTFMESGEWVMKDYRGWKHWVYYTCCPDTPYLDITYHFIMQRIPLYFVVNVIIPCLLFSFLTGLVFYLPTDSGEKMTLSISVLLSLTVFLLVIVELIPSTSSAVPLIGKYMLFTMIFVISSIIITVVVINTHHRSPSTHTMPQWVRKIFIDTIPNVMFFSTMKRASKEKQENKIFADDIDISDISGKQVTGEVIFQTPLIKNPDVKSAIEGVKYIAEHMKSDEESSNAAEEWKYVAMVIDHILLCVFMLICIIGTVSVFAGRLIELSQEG", "T1 sequence (P02714 18-506)": "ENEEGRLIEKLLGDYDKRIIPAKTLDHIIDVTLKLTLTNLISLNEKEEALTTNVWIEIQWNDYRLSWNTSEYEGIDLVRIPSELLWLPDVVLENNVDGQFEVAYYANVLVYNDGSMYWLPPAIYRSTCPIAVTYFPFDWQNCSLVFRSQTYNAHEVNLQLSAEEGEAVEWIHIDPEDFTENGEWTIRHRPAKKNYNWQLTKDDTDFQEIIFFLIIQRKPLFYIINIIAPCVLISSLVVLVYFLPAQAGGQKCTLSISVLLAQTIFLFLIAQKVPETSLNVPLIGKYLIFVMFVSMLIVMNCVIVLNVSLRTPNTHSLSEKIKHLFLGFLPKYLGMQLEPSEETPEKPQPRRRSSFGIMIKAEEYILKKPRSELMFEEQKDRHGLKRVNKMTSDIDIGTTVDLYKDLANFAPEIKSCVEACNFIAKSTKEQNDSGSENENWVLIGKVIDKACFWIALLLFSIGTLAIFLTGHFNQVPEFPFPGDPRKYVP", "assay": "ACh-evoked currents in normal nACh receptors expressed in Xenopus oocytes (two-electrode voltage clamp)", "format": "cell-based", "experimental": "Cell membrane currents were recorded by use of two-electrode voltage clamp techniques (T. Nishizaki et al., Ikeuchi, Brain Res. 687, 214, 1995). ACh (100 µM) was administered to a single oocyte expressing normal ACh receptors at 10-min intervals before and after 10-min treatment of the oocyte with nefiracetam. The holding voltage was -30 mV. In accordance with a conventional method, wild-type acetylcholine (nACh) receptors were expressed in Xenopus oocytes (K. Sumikawa et al., Mol. Brain Res. 5, 183, 1989), and by the application of ACh (100 µM), inward membrane currents were evoked (Table 13). Currents were recorded at 10-min intervals. During the recording period, spontaneous attenuation of the currents was within 5% (data not shown). […] After the drug was washed out, the amplitude gradually recovered (Table 13). The reductions in current were 70% (n=7) with 0.01 µM and 62% with 0.1 µM nefiracetam.\n(§1) ACh (100 µM) was applied to each of an oocyte expressing normal ACh receptors and an oocyte expressing mutant ACh receptors (mγΔPKA/Ser353, 354m δΔPKA/Ser361,362) lacking PKA phosphorylation sites, before and after treatment with nefiracetam (0.01 µM). The oocytes expressing normal ACh receptors were treated with H-89 (1 µM) from 15 min before recording, or with pertussis toxin (0.1 µg/ml) for 24h prior to experiments. The currents illustrated in Table 16 were recorded before and 30 min after treatment with nefiracetam. The holding voltage was - 30 mV. In Table 16, each point represents the average obtained from seven oocytes.\nACh (100 µM) was applied to each of an oocyte expressing normal ACh receptors and an oocyte expressing mutant ACh receptors (mγΔPKA/Ser353,354m δΔPKA/Ser361,362) lacking PKA phosphorylation sites, in the presence and absence of GF109203X (100 nM) or in calcium-free extracellular solution."}, "[2]": {"system": "postsynaptic potentials evoked from the hippocampal CA1 region", "assay": "Postsynaptic potentials recorded in the CA1 pyramidal cell layer of rat hippocampal slices", "format": "cell-based"}, "α7 receptor": {"target": "T2, α7 receptor (Rattus norvegicus, UniProt Q05941)", "T2 construct": "expressed in transfected cells; host or cells: Xenopus oocytes injected with in vitro transcribed mRNA", "T2 sequence (Q05941 23-502)": "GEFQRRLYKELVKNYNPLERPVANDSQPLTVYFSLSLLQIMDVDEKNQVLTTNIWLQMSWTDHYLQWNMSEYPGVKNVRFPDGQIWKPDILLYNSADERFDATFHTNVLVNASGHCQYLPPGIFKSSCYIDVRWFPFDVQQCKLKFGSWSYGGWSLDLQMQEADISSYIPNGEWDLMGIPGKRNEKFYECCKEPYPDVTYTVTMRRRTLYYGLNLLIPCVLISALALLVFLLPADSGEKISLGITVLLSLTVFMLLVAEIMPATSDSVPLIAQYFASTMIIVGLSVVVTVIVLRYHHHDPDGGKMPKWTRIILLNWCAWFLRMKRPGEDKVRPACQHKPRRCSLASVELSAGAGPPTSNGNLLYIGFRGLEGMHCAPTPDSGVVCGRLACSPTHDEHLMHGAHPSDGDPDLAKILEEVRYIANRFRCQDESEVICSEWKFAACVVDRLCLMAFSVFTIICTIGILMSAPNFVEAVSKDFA", "assay": "ACh-evoked currents in α7 receptors expressed in Xenopus oocytes (two-electrode voltage clamp)", "format": "cell-based", "settings": "for normalized response (%): nef(+), n=5", "experimental": "Two-electrode voltage-clamp technique was used to record expression α4β2 or α7 receptors in oocytes. […] The holding voltage was -30 or -60 mV for α4β2-nAChR or α7-nAChR, respectively. Downward directions correspond to inward currents.\nmRNAs for the rat α4β2 receptor and α7 receptor, GLUR1, 2, 3 receptors, and NP152 and NP153 were constructed as described previously. Xenopus oocytes were manually separated from the ovary, and subjected to treatment with collagenase (0.5 mg/ml). Thereafter, the treated oocytes were incubated overnight in Barth's solution (in mM, 88 NaCl, 1 KCl, 2.4 NaHCO3, 0.82 MgSO4, 0.33 […], 0.41 CaCl2, and 7.5 Tris; pH 7.6). The oocytes were injected with the α4β2 or α7 receptor mRNA and incubated at 18°C. In some cases, NP152 and NP153 were co-expressed with the α4β2 and α7 receptors. The injected oocytes were incubated and transferred to a recording chamber 2-7 days after incubation and continuously superfused at room temperature (20-22°C) with a standard frog Ringer's solution [in mM: 115 NaCl, 2 KCl, 1.8 CaCl2, 5 HEPES; pH 7.0]. To remove the effect of endogenous muscarinic ACh receptor, 1 µM atropine was added to the extracellular solution. ACh-evoked currents were recorded by use of two-electrode voltage clamp techniques and an amplifier (GeneClamp-500, Axon Instrument, Inc. USA). The currents were analyzed on a microcomputer by pClamp software (Axon Instrument, Inc.; Version 6). From the results, an assessment was made as to whether nefiracetam actually acts on the nACh receptors."}, "[3]": {"system": "mutant ACh receptors lacking potent PKC phosphorylation sites on the α and δ subunits (mαΔPKC/Ser333m δΔPKC/Ser377)", "assay": "ACh-evoked currents in mutant ACh receptors lacking PKC phosphorylation sites expressed in Xenopus oocytes", "format": "cell-based", "settings": "nefiracetam 1 µM"}, "[4]": {"system": "mutant ACh receptors (mγΔPKA/Ser353,354m δΔPKA/Ser361,362) lacking PKA phosphorylation sites", "assay": "ACh-evoked currents in mutant ACh receptors lacking PKA phosphorylation sites expressed in Xenopus oocytes", "format": "cell-based", "settings": "nefiracetam 0.01 µM; 30 min after treatment; n=7", "experimental": "as §1\nTo further examine whether the current depression by nefiracetam is due to PKA phosphorylation of the receptors or not, mutant ACh receptors lacking potent PKA phosphorylation sites on the γ and δ subunits (mγΔ PKA/Ser353,354m δΔPKA/Ser361,362) were expressed in Xenopus oocytes."}, "[5]": {"system": "excitatory postsynaptic potential in the brain", "assay": "Excitatory postsynaptic potential (PS) in the brain in vivo, hippocampal granular cell layer", "parameters": "species or system mice", "experimental": "A group of mice were provided. The head of each mouse was fixed, and electrodes were inserted into the granular cell layer of the hippocampal region. PS was recorded. Nefiracetam was intramuscularly injected (7.5 mg/kg). […] This effect was confirmed even after 960 minutes. Thus, the effect obtained in vitro was also confirmed in an in vivo experiment […]."}}, "note": "Like-named read-outs stand apart in the source and are kept apart here."}
{"smiles": "Cc1cccc(C)c1NC(=O)CN1CCCC1=O", "note": "[nefiracetam, 2-oxo-1-pyrrolidinylacetic acid 2,6-dimethylanilide]", "values": [{"measurement": "inhibition at 0.01 µM", "setting": "[1]; 0.01 µM nefiracetam for 10 min, n=7, read-out: reduction in ACh-evoked current", "value": 70, "unit": "%"}, {"measurement": "inhibition at 0.1 µM", "setting": "[1]; 0.1 µM nefiracetam for 10 min, read-out: reduction in ACh-evoked current", "value": 62, "unit": "%"}, {"measurement": "activity at 1 µM", "setting": "[1]; 1.5 h, 1 µM, 10-min treatment, 90 min after washing-out, n=7, read-out: ACh-evoked currents enhanced, reaching", "value": 243, "unit": "%"}, {"measurement": "activity at 10 µM", "setting": "[1]; 1.5 h, 10 µM, 10-min treatment, 90 min after washing-out, n=7, read-out: ACh-evoked currents enhanced, reaching", "value": 255, "unit": "%"}, {"measurement": "ACh-evoked currents reduced to", "setting": "[1]; nefiracetam in the presence of GF109203X, 30 minutes after administration, n=7", "value": 60, "unit": "%"}, {"measurement": "Postsynaptic potential (% of original amplitude)", "setting": "[2]; Nefiracetam 0.01 µM, GF109203X(100nM), 10 min after treatment, n=5", "value": "50 ± 5", "unit": "%"}, {"measurement": "Postsynaptic potential (% of original amplitude)", "setting": "[2]; Nefiracetam 0.01 µM, H-89(1µM), 10 min after treatment, n=5", "value": "103 ± 8", "unit": "%"}, {"measurement": "Postsynaptic potential (% of original amplitude)", "setting": "[2]; Nefiracetam 1 µM, GF109203X(100nM), 10 min after treatment, n=5", "value": "108.8 ± 11.6", "unit": "%"}, {"measurement": "Postsynaptic potential (% of original amplitude)", "setting": "[2]; Nefiracetam 1 µM, H-89(1µM), 10 min after treatment, n=5", "value": "155 ± 8", "unit": "%"}, {"measurement": "activity at 0.01 µM", "setting": "[2]; Rattus norvegicus, 10 min, Nefiracetam 0.01 µM, Control (no inhibitor), 10 min after treatment, n=5, read-out: Postsynaptic potential (% of original amplitude)", "value": "85 ± 5", "unit": "%"}, {"measurement": "activity at 1 µM", "setting": "[2]; Rattus norvegicus, 10 min, Nefiracetam 1 µM, Control (no inhibitor), 10 min after treatment, n=5, read-out: Postsynaptic potential (% of original amplitude)", "value": "143 ± 2", "unit": "%"}, {"measurement": "activity at 1 µM", "setting": "[2]; Rattus norvegicus, 1 h, 60 minutes after the 1 µM treatment, read-out: magnitude of maximum facilitation of the postsynaptic potentials", "value": "~150", "unit": "%"}, {"measurement": "activity at 0.001 µM", "setting": "[2]; Rattus norvegicus, nefiracetam 0.001 µM, Mean ± SD, n = 5 to 7, read-out: Postsynaptic potential (% of original amplitude)", "value": "95 ± 6", "unit": "%"}, {"measurement": "activity at 0.01 µM", "setting": "[2]; Rattus norvegicus, nefiracetam 0.01 µM, Mean ± SD, n = 5 to 7, read-out: Postsynaptic potential (% of original amplitude)", "value": "94 ± 5", "unit": "%"}, {"measurement": "activity at 0.1 µM", "setting": "[2]; Rattus norvegicus, nefiracetam 0.1 µM, Mean ± SD, n = 5 to 7, read-out: Postsynaptic potential (% of original amplitude)", "value": "111 ± 9", "unit": "%"}, {"measurement": "activity at 1 µM", "setting": "[2]; Rattus norvegicus, nefiracetam 1 µM, Mean ± SD, n = 5 to 7, read-out: Postsynaptic potential (% of original amplitude)", "value": "156 ± 6", "unit": "%"}, {"measurement": "activity at 10 µM", "setting": "[2]; Rattus norvegicus, read-out: Postsynaptic potential (% of original amplitude), nefiracetam 10 µM, Mean ± SD, n = 5 to 7", "value": "144 ± 11", "unit": "%"}, {"measurement": "concentrations giving short-term suppression of the postsynaptic potentials", "setting": "[2]; biphasic effect, lower concentrations", "value": "≤ 0.1", "unit": "µM"}, {"measurement": "concentration of maximum potentiation of ACh-evoked currents", "setting": "α7 receptor", "value": 1, "unit": "µM"}, {"measurement": "activity at 1 µM", "setting": "α7 receptor; 1 h, nefiracetam 1 µM, 60 minutes after treatment, read-out: ACh-evoked currents potentiated, reaching", "value": 195, "unit": "%"}, {"measurement": "normalized response (%)", "setting": "α7 receptor; ACh 0.1 µM, nefiracetam 1 µM", "value": 0, "unit": "%"}, {"measurement": "normalized response (%)", "setting": "α7 receptor; ACh 1 µM, nefiracetam 1 µM", "value": 1.5, "unit": "%"}, {"measurement": "normalized response (%)", "setting": "α7 receptor; ACh 10 µM, nefiracetam 1 µM", "value": 3, "unit": "%"}, {"measurement": "normalized response (%)", "setting": "α7 receptor; ACh 100 µM, nefiracetam 1 µM", "value": 35, "unit": "%"}, {"measurement": "normalized response (%)", "setting": "α7 receptor; ACh 1000 µM, nefiracetam 1 µM", "value": 100, "unit": "%"}, {"measurement": "activity at 0.01 µM", "setting": "α7 receptor; Nefiracetam 0.01 µM, n = 5 to 8, read-out: % of the original amplitude", "value": "97.4 ± 5.5", "unit": "%"}, {"measurement": "activity at 0.1 µM", "setting": "α7 receptor; Nefiracetam 0.1 µM, n = 5 to 8, read-out: % of the original amplitude", "value": "181 ± 10.8", "unit": "%"}, {"measurement": "activity at 1 µM", "setting": "α7 receptor; Nefiracetam 1 µM, n = 5 to 8, read-out: % of the original amplitude", "value": "195 ± 8.8", "unit": "%"}, {"measurement": "activity at 10 µM", "setting": "α7 receptor; Nefiracetam 10 µM, n = 5 to 8, read-out: % of the original amplitude", "value": "116 ± 7.2", "unit": "%"}, {"measurement": "currents potentiated to", "setting": "α7 receptor; in the presence of the inactive PKC inhibitory peptide (NP153; iPKCI)", "value": 193.6, "unit": "%"}, {"measurement": "concentration at which potentiation of ACh-evoked currents was observed", "setting": "α7 receptor; lowest effective concentration", "value": "≥ 0.01", "unit": "µM"}, {"measurement": "current potentiation in mutant ACh receptors lacking PKC phosphorylation sites", "setting": "[3]", "value": "exhibited no current potentiation"}, {"measurement": "ACh-evoked currents increased to", "setting": "[4]", "value": 159, "unit": "%"}, {"measurement": "time after which potentiation of the excitatory postsynaptic potential was still confirmed", "setting": "[5]; 7.5 mg/kg intramuscularly, mice", "value": "≥ 960", "unit": "min"}, {"measurement": "effect on excitatory postsynaptic potential (PS) in vivo", "setting": "[5]; administered to animals", "value": "significant potentiation"}]}
